No end group written: not given here.
Assays:
Format in all cases: in vivo, BALB/c nude mice
Conditions in all cases: for in vivo tumor growth inhibition rate: mouse, 15 mg/kg
[1] = test system: A431 cells of skin cancer
Method: (§1) • (1) Massively culture SCC4 cells of head and neck cancer, SW579 cells of thyroid cancer, A549 cells of lung cancer, TE13 cells of esophageal squamous cell carcinoma, MGC803 cells of stomach cancer, MDA-MB-231 cells of breast cancer, UOK262 cells of kidney cancer, and A431 cells of skin cancer of human, digest with a 0.25% pancreatin solution, centrifuge the cell suspension at 1,000 rpm for 5 min after termination of digestion, re-suspend the cells by serum-free DMEM culture medium, then count the cells and adjust cell concentration to 5×10^7 cells/ml; • (2) Inoculate each nude mouse (female mice at the age of 4-6 weeks and with a weight of 14-16 g were ordered and adaptively reared for 1 week in an SPF animal breeding room) with 100 μl of the cell suspension of the corresponding group in the left armpit, and the number of cells injected is 5×10^6; • (3) After inoculation, the tumor growth at the inoculation sites of nude mice was closely observed. On the 7th day after inoculation, white scabs appeared at the inoculation sites, which could move subcutaneously after being touched. With the growth of tumor tissue, hard tumor masses were gradually formed at the inoculation sites. On about the 14th day, the average volume of the tumor tissue reached 100 mm^3. BALB/c nude mice were randomly divided into three groups (the normal saline group was a blank control group, the micropeptide HMMW at a dose of 10 mg/kg was a low-dose group, and the micropeptide HMMW at a dose of 15 mg/kg was a high-dose group), 6 mice in each group, and the animals weighed 16-18 g at the beginning of administration; • (4) The volume of the transplanted tumor was measured and recorded every two days. The calculation formula of tumor volume (TV) is shown below: TV=0.5×a×b^2 • where, a is the length of the transplanted tumor (mm), and b is the width of the transplanted tumor (mm). • (1) Massively culture SCC4 cells of head and neck cancer, SW579 cells of thyroid cancer, A549 cells of lung cancer, TE13 cells of esophageal squamous cell carcinoma, MGC803 cells of stomach cancer, MDA-MB-231 cells of breast cancer, UOK262 cells of kidney cancer, and A431 cells of skin cancer of human, digest with a 0.25% pancreatin solution, centrifuge the cell suspension at 1,000 rpm for 5 min after termination of digestion, re-suspend the cells by serum-free DMEM culture medium, then count the cells and adjust cell concentration to 5×10^7 cells/ml; • (2) Inoculate each nude mouse (female mice at the age of 4-6 weeks and with a weight of 14-16 g were ordered and adaptively reared for 1 week in an SPF animal breeding room) with 100 μl of the cell suspension of the corresponding group in the left armpit, and the number of cells injected is 5×10^6; • (3) After inoculation, the tumor growth at the inoculation sites of nude mice was closely observed. On the 7th day after inoculation, white scabs appeared at the inoculation sites, which could move subcutaneously after being touched. With the growth of tumor tissue, hard tumor masses were gradually formed at the inoculation sites. On about the 14th day, the average volume of the tumor tissue reached 100 mm^3. BALB/c nude mice were randomly divided into three groups (the normal saline group was a blank control group, and each of micropeptides HMMW I to IX formed a group at a dose of 15 mg/kg), 6 mice in each group, and the animals weighed 16-18 g at the beginning of administration; • (4) The volume of the transplanted tumor was measured and recorded every two days. The calculation formula of tumor volume (TV) is shown below: TV=0.5×a×b^2 • where, a is the length of the transplanted tumor (mm), and b is the width of the transplanted tumor (mm).

[2] = test system: A549 cells of lung cancer
Method: as §1

[3] = test system: MDA-MB-231 cells of breast cancer
Method: as §1

[4] = test system: MGC803 cells of stomach cancer
Method: as §1

[5] = test system: SCC4 cells of head and neck cancer
Method: as §1

[6] = test system: SW579 cells of thyroid cancer
Method: as §1

[7] = test system: TE13 cells of esophageal squamous cell carcinoma
Method: as §1

[8] = test system: UOK262 cells of kidney cancer
Method: as §1

Substance	in vivo tumor growth inhibition rate [1] [%]	in vivo tumor growth inhibition rate [2] [%]	in vivo tumor growth inhibition rate [3] [%]	in vivo tumor growth inhibition rate [4] [%]	in vivo tumor growth inhibition rate [5] [%]	in vivo tumor growth inhibition rate [6] [%]	in vivo tumor growth inhibition rate [7] [%]	in vivo tumor growth inhibition rate [8] [%]	inhibition of tumorigenicity in vivo ([1]; A431, nude mice, 10 and 15 mg/kg, vs normal saline, dose-dependent (Embodiment 6))	inhibition of tumorigenicity in vivo ([2]; A549, nude mice, 10 and 15 mg/kg, vs normal saline, dose-dependent (Embodiment 6))	inhibition of tumorigenicity in vivo ([3]; MDA-MB-231, nude mice, 10 and 15 mg/kg, vs normal saline, dose-dependent (Embodiment 6))	inhibition of tumorigenicity in vivo ([4]; MGC803, nude mice, 10 and 15 mg/kg, vs normal saline, dose-dependent (Embodiment 6))	inhibition of tumorigenicity in vivo ([5]; SCC4, nude mice, 10 and 15 mg/kg, vs normal saline, dose-dependent (Embodiment 6))	inhibition of tumorigenicity in vivo ([6]; SW579, nude mice, 10 and 15 mg/kg, vs normal saline, dose-dependent (Embodiment 6))	inhibition of tumorigenicity in vivo ([7]; TE13, nude mice, 10 and 15 mg/kg, vs normal saline, dose-dependent (Embodiment 6))	inhibition of tumorigenicity in vivo ([8]; UOK262, nude mice, 10 and 15 mg/kg, vs normal saline, dose-dependent (Embodiment 6))
MGSTGVPGFSPRRSSVEAKMQSTSCSVRKSSTVTAWPAVVLLLSWGQRRGG-OH [HMMW-VII]	67.70	69.13	68.91	65.11	72.75	68.63	71.23	64.37	–	–	–	–	–	–	–	–
MGSTYNPGFSPRRSSVEAKMQSTSCSVRKSSTVTAWPAVVLLLSWGQRRGG-OH [HMMW-V]	69.41	71.12	67.75	71.04	67.14	70.78	63.46	64.16	–	–	–	–	–	–	–	–
MERAGVPGFSPRRSSVEAKMQSTSCSVRKSSTVTAWPAVVLLLSWGQRRGG-OH [HMMW-I]	62.74	69.23	67.97	68.12	72.56	66.63	65.43	63.80	significantly inhibit	significantly inhibit	significantly inhibit	significantly inhibit	significantly inhibit	significantly inhibit	significantly inhibit	significantly inhibit
MGRAGVPGFSPRRSSVEAKMQSTSCSVRKSSTVTAWPAVVLLLSWGQRRGG-OH [HMMW-IX]	64.33	69.09	69.36	68.61	71.84	67.89	65.31	65.23	–	–	–	–	–	–	–	–
MERAGVPGFSPRRSSVEAKMQSTSCSVRKSSTVTAWPAVVLLLSWGQRRGE-OH [HMMW-VIII]	68.21	69.30	69.82	69.38	68.24	71.76	68.81	65.15	–	–	–	–	–	–	–	–
MERAGVPGFSPRRSSVEAKMQSTSCSVRKSSTVTAWPAVVLLLSWGKDDEE-OH [HMMW-IV]	71.71	68.25	65.93	67.52	71.72	72.13	61.41	64.70	–	–	–	–	–	–	–	–
MGSTYNKRHSPRRSSVEAKMQSTSCSVRKSSTVTAWPAVVLLLSWGQRRGG-OH [HMMW-III]	69.54	73.08	69.49	69.62	70.84	71.89	66.31	61.67	–	–	–	–	–	–	–	–
MERAGVPGFSPRRSSVEAKMQSTSCSVRKSSTVTAWPAVVLLLHTSKDDEE-OH [HMMW-II]	71.22	71.32	68.95	70.08	66.24	64.76	62.86	63.12	–	–	–	–	–	–	–	–
MERAGVPGFSPRRSSVEAKMQSTSCSVRKSSTVTAWPAVVLLLSWGQRDEE-OH [HMMW-VI]	68.25	65.27	71.18	66.51	73.54	66.79	65.56	65.19	–	–	–	–	–	–	–	–

— patent US12565522B2, “Micropeptide HMMW and application thereof” (NANJING ANJI BIOTECHNOLOGY CO., LTD., priority 2019, dated 2026)
